Here are results for two compounds from patent US20210052771A1, “NANOPARTICULATE MINERALIZED COLLAGEN GLYCOSAMINOGLYCAN SCAFFOLD WITH AN ANTI-RESORPTION FACTOR” (THE REGENTS OF THE UNIVERSITY OF CALIFORNIA, priority 2018, published 2021).

The test system of assay [1] is canonical BMP receptor signaling pathway. Briefly: Western blot of hMSCs on Col-GAG and MC-GAG with DMH1. Format: cell-based, human. The settings on record: 50 μM. The procedure: (§1) Osteogenic differentiation of hMSCs on Col-GAG and MC-GAG: 3×10^5 hMSCs were seeded onto 8 mm discs of CG-GAG and MC-GAG scaffolds in proliferation media. 24 h after seeding, media was switched to osteogenic differentiation media consisting of 10 mM β-glycerophosphate, 50 μg/mL ascorbic acid, and 0.1 μM dexamethasone. For inhibitor studies, scaffolds were treated or untreated with dorsomorphin homologue 1 (DMH1; Sigma-Aldrich) or PD98059 (Cell Signaling Technologies, Beverly, Mass.) separately, all at a concentration of 50 μM. Fresh DMH1 and PD98059 were added to each media change every 3 days.
(§2) Western blot: Lysates were prepared from scaffolds at 0, 4, 14, and 24 days of culture using SDS sample buffer and equal amounts were subjected to 4-20% SDS-PAGE (Bio-Rad, Hercules, Calif.). Western blot analysis was carried out with antibodies against OPG, RANKL, phosphorylated small mothers against decapentaplegic 1/5 (p-Smad1/5), total Smad5, phosphorylated extracellular regulated kinase 1/2 (p-ERK1/2), total ERK1/2, and (3-actin followed by 1:4000 dilutions of HRP-conjugated IgG antibodies (Bio-Rad, Hercules, Calif.) and an enhanced chemiluminescent substrate (Thermo Scientific, Rockford, Ill.). For detection of p-Smad1/5 and total Smad5, 10 μg of lysate was loaded per lane. For detection of OPG, RANKL, p-ERK1/2, total ERK1/2, and β-actin, 20 μg of lysate was loaded per lane. All antibodies were obtained from Cell Signaling Technologies (Beverly, Mass.) with the exception of RANKL, OPG and β-actin antibodies which were obtained from Santa Cruz Biotechnology (Santa Cruz, Calif.). Imaging analysis was carried out using ImageJ (NIH, Bethesda, Md.).

Assay [2] deals with MEK1/ERK1/2 signaling pathway. Nature of the assay: Western blot of hMSCs on Col-GAG and MC-GAG with PD98059. Format: cell-based, human. The settings on record: 50 μM. The procedure:
as §1, §2

The mark [3] stands for this setting: all timepoints, either material.

Regarding `CC(C)Oc1ccc(-c2cnc3c(-c4ccnc5ccccc45)cnn3c2)cc1` [DMH1, dorsomorphin homologue 1], in assay [1], the “total Smad5, total ERK1/2, RANKL, or actin” value was “No differences”. In addition, in assay [1] (MC-GAG at day 4), the “phosphorylated ERK1/2” value is reported as “small elevation”. Also, the “phosphorylation of Smad1/5” value in assay [1] (setting [3]) was “partially decreased”. Further, the OPG expression result in assay [1] (both Col-GAG and MC-GAG, particularly day 14) is on record as “increased”.

`COc1cccc(-c2cc(=O)c3ccccc3o2)c1N` [PD98059]: the “phosphorylated Smad1/5, total Smad5, total ERK1/2, or actin” value in assay [2] is recorded as “no effects”. Also, the OPG protein expression result is reported as “no differences” in assay [2] (Col-GAG) and “decreased” in assay [2] (MC-GAG, all timepoints). Further, the RANKL expression result is “no differences” in assay [2] (Col-GAG) and “downregulated” in assay [2] (MC-GAG, particularly day 24). Further, in assay [2] (setting [3]), the “phosphorylated ERK1/2” value was “decreased”.
